# Experimental data: ChEMBL document CHEMBL3784925, “Discovery of a New Inhibitor of Myeloid Differentiation 2 from Cinnamamide Derivatives with Anti-Inflammatory Activity in Sepsis and Acute Lung Injury” (J Med Chem, 2016)
# Active and inactive are the calls of the source. The rule behind the calls is not given here.
# What was measured:
# [1] = Cmax in Sprague-Dawley rat plasma at 10 mg/kg, iv after 24 hrs by UPLC analysis; assay type: ADME, organism-based; set-up: dose 10 mg/kg, route intravenous
# Mus musculus [2] = assay: Antiinflammatory activity in LPS-induced septic shock C57BL/6 mouse model assessed as mouse survival at 10 mg/kg, iv treated 15 mins before LPS challenge measured for 7 days relative to control; assay type: functional; conditions: C57BL/6, iv
# Mus musculus [3] = assay: Antiinflammatory activity in acute lung injury C57BL/6 mouse model assessed as inhibition of LPS-induced lung edema at 20 mg/kg, po treated 15 mins before LPS challenge measured after 6 hrs; assay type: functional, organism-based
# Mus musculus [4] = assay: Antiinflammatory activity in acute lung injury C57BL/6 mouse model assessed as inhibition of LPS-induced MPO activity in lung tissues at 20 mg/kg, po treated 15 mins before LPS challenge measured after 6 hrs; assay type: functional, organism-based
# Mus musculus [5] = assay: Antiinflammatory activity in acute lung injury C57BL/6 mouse model assessed as inhibition of LPS-induced thickening of alveolar wall at 20 mg/kg, po treated 15 mins before LPS challenge measured after 6 hrs by hematoxylin and eosin staining based light microscopic analysis; assay type: functional, organism-based
# Mus musculus [6] = assay: Antiinflammatory activity in acute lung injury C57BL/6 mouse model assessed as inhibition of LPS-induced interstitial edema at 20 mg/kg, po treated 15 mins before LPS challenge measured after 6 hrs by hematoxylin and eosin staining based light microscopic analysis; assay type: functional, organism-based
# [7] = molecular target: T1, Inhibitor of nuclear factor kappa-B kinase subunit beta (Homo sapiens) (UniProt O14920); assay: Inhibition of recombinant human N-terminal His-tagged IKKbeta (1 to 662 residues) expressed in baculovirus expression system using modified IkBalpha-derived peptide as substrate at 0.05 to 50 uM after 1 hr by microfluidic assay
# T1 sequence (whole entry): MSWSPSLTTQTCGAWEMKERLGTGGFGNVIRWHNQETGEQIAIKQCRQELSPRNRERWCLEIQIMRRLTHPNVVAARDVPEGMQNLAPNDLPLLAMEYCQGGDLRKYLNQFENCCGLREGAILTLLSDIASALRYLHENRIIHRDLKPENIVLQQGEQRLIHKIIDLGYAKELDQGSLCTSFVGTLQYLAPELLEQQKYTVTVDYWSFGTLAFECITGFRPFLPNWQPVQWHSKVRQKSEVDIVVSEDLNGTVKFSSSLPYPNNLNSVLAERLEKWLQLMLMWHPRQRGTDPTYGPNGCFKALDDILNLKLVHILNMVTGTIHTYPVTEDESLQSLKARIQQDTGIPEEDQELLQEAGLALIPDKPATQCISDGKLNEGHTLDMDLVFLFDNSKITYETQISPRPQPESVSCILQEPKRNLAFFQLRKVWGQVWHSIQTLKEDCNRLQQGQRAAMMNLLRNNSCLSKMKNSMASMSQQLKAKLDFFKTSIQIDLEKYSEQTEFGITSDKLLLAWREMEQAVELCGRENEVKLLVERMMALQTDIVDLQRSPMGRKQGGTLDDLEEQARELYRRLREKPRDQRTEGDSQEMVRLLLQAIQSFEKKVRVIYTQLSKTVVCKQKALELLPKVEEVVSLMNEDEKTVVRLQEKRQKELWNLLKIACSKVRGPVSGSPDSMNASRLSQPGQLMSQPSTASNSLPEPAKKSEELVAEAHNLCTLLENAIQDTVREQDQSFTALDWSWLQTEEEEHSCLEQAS
# [8] = Cytotoxicity against C57BL/6 mouse primary peritoneal macrophages assessed as reduction in cell viability at 10 uM after 24 hrs by MTT assay; assay type: cell-based; conditions: peritoneal macrophage cell
# [9] = molecular target: Mitogen-activated protein kinase 3 (Homo sapiens) (UniProt P27361); assay: Inhibition of full length recombinant human N-terminal GST-tagged ERK1 (1 to 379 residues) expressed in Escherichia coli using modified erktide as substrate at 0.05 to 50 uM after 1 hr by microfluidic assay
# Sequence of Mitogen-activated protein kinase 3 (Homo sapiens) (P27361 whole entry, the tested form may be a part): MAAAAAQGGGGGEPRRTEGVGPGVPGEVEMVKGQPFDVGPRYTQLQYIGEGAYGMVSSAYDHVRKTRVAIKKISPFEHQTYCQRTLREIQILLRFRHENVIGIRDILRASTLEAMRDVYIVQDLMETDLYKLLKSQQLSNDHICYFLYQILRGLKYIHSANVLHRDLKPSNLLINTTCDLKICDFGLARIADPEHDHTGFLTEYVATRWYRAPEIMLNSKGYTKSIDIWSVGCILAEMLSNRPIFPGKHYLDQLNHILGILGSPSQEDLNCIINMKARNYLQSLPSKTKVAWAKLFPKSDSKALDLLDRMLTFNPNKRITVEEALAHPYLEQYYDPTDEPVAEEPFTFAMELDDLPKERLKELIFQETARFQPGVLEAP
# [10] = Cmax in Sprague-Dawley rat plasma at 10 mg/kg, iv measured immediately post treatment by UPLC analysis; assay type: ADME, organism-based; set-up: dose 10 mg/kg, route intravenous
# Mus musculus [11] = assay: Antiinflammatory activity in acute lung injury C57BL/6 mouse model assessed as inhibition of LPS-induced infiltration of inflammatory cells at 20 mg/kg, po treated 15 mins before LPS challenge measured after 6 hrs by hematoxylin and eosin staining based light microscopic analysis; assay type: functional, organism-based
# Mus musculus [12] = assay: Antiinflammatory activity in acute lung injury C57BL/6 mouse model assessed as inhibition of LPS-induced pulmonary congestion at 20 mg/kg, po treated 15 mins before LPS challenge measured after 6 hrs by hematoxylin and eosin staining based light microscopic analysis; assay type: functional, organism-based
# [13] = molecular target: Toll-like receptor 2 (Mus musculus) (UniProt Q9QUN7); assay: Inhibition of TLR2 in mouse RAW264.7 cells assessed as inhibition of Pam3CK-induced TNF-alpha level at 5 to 10 uM preincubated for 2 hrs followed by Pam3CK addition measured after 12 hrs by ELISA; assay type: cell-based
# Sequence of Toll-like receptor 2 (Mus musculus) (Q9QUN7 whole entry, the tested form may be a part): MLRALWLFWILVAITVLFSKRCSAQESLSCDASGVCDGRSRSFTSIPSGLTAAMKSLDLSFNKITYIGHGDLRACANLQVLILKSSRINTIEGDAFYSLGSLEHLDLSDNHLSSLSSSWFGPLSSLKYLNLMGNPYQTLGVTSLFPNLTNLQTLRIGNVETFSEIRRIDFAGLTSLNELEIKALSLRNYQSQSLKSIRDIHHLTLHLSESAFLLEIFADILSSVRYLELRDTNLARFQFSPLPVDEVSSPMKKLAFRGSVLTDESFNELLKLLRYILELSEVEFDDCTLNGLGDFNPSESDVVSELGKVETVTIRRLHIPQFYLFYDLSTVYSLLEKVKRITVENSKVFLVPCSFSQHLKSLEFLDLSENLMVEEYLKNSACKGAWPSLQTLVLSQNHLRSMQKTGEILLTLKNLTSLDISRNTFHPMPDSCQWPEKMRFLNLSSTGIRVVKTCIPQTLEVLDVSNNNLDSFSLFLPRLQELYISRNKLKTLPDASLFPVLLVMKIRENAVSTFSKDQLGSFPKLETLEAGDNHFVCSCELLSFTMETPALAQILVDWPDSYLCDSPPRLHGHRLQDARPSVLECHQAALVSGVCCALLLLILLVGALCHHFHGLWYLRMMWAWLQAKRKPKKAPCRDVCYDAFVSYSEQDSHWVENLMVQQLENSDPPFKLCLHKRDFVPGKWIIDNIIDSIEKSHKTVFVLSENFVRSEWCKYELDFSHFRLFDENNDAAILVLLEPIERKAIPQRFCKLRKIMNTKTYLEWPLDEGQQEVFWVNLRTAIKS
# [14] = molecular target: Mitogen-activated protein kinase 9 (Homo sapiens) (UniProt P45984); assay: Inhibition of recombinant human N-terminal GST-tagged JNK2 catalytic domain (1 to 364 residues) expressed in Escherichia coli using modified erktide as substrate at 0.05 to 50 uM after 1 hr by microfluidic assay
# Sequence of Mitogen-activated protein kinase 9 (Homo sapiens) (P45984 whole entry, looked up, the tested form may be a part): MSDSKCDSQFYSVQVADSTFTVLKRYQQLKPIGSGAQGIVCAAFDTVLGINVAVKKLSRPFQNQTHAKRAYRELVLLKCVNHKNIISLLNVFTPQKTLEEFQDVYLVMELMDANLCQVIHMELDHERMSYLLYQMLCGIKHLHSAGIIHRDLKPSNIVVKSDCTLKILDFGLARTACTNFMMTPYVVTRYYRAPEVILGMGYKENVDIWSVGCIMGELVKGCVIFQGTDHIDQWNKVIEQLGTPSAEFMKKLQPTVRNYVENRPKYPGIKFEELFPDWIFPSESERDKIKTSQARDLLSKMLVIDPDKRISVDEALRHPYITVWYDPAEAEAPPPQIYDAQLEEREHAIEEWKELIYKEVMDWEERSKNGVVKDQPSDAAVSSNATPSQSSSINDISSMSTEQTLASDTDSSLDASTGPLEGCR
# Mus musculus [15] = assay: Antiinflammatory activity in acute lung injury C57BL/6 mouse model assessed as inhibition of LPS-induced TNF-alpha mRNA expression in lung tissues at 20 mg/kg, po treated 15 mins before LPS challenge measured after 6 hrs; assay type: functional, organism-based
# [16] = Cmax in Sprague-Dawley rat plasma at 20 mg/kg, po measured immediately post treatment by UPLC analysis; assay type: ADME, organism-based; set-up: dose 20 mg/kg, route oral
# [17] = molecular target: Toll-like receptor 4 (Homo sapiens) (UniProt O00206); assay: Binding affinity to recombinant human TLR4 at 6.25 to 100 uM by surface plasmon resonance analysis
# Sequence of Toll-like receptor 4 (Homo sapiens) (O00206 whole entry): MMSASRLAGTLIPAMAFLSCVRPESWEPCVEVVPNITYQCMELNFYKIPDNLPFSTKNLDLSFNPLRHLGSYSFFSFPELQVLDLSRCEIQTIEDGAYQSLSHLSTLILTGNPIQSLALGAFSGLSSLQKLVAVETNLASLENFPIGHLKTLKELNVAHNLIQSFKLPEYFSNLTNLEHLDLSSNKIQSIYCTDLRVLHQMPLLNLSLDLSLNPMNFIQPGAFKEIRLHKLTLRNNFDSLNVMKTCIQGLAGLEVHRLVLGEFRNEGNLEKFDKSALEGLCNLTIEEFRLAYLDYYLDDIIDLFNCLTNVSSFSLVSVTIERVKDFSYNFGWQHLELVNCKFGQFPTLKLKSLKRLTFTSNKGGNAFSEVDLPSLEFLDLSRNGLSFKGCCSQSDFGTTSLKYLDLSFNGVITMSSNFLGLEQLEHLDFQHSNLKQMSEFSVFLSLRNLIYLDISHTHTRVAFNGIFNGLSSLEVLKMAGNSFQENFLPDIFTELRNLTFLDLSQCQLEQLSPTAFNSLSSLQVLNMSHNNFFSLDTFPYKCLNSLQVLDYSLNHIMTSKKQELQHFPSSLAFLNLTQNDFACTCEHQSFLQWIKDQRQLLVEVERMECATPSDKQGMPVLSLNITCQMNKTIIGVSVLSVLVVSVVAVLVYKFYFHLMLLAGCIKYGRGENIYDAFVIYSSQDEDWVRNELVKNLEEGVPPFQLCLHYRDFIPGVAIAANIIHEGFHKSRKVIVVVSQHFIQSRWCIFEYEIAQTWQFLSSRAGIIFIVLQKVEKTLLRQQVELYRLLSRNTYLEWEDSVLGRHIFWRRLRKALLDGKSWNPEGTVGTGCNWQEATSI
# Mus musculus [18] = assay: Antiinflammatory activity in acute lung injury C57BL/6 mouse model assessed as inhibition of LPS-induced increase in neutrophil level in bronchoalveolar lavage fluid at 20 mg/kg, po treated 15 mins before LPS challenge measured after 6 hrs by wright-gimesa staining based assay; assay type: functional, organism-based
# Mus musculus [19] = assay: Antiinflammatory activity in acute lung injury C57BL/6 mouse model assessed as inhibition of LPS-induced IL-1beta mRNA expression in lung tissues at 20 mg/kg, po treated 15 mins before LPS challenge measured after 6 hrs; assay type: functional, organism-based
# Mus musculus [20] = assay: Antiinflammatory activity in acute lung injury C57BL/6 mouse model assessed as inhibition of LPS-induced increase in total cells in bronchoalveolar lavage fluid at 20 mg/kg, po treated 15 mins before LPS challenge measured after 6 hrs by cell counting method; assay type: functional, organism-based
# Mus musculus [21] = assay: Antiinflammatory activity in acute lung injury C57BL/6 mouse model assessed as inhibition of LPS-induced IL-6 mRNA expression in lung tissues at 20 mg/kg, po treated 15 mins before LPS challenge measured after 6 hrs; assay type: functional, organism-based
# [22] = molecular target: Mitogen-activated protein kinase 14 (Homo sapiens) (UniProt Q16539); assay: Inhibition of recombinant human N-terminal GST-tagged p38-alpha (9 to 352 residues) expressed in Escherichia coli using modified erktide as substrate at 0.05 to 50 uM after 1 hr by microfluidic assay
# Sequence of Mitogen-activated protein kinase 14 (Homo sapiens) (Q16539 whole entry, the tested form may be a part): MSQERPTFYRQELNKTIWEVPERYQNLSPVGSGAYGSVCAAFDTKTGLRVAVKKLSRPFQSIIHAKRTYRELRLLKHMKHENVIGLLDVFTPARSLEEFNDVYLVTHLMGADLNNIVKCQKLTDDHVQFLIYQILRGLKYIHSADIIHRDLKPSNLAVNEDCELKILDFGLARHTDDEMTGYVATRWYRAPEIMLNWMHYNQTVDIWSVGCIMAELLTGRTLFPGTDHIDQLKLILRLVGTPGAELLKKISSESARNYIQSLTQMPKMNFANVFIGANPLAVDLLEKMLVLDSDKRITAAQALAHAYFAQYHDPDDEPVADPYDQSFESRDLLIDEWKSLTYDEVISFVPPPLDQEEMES
# Mus musculus [23] = assay: In vivo inhibition of LPS-induced MD2/TLR4 complex formation in lung tissues of acute lung injury C57BL/6 mouse model at 20 mg/kg, po treated 15 mins before LPS challenge measured after 6 hrs by immunoprecipitation assay; assay type: functional, organism-based
# Mus musculus [24] = assay: Antiinflammatory activity in acute lung injury C57BL/6 mouse model assessed as inhibition of LPS-induced increase in protein concentration in bronchoalveolar lavage fluid at 20 mg/kg, po treated 15 mins before LPS challenge measured after 6 hrs; assay type: functional, organism-based
# [25] = Cmax in Sprague-Dawley rat plasma at 20 mg/kg, po after 12 hrs by UPLC analysis; assay type: ADME, organism-based; set-up: dose 20 mg/kg, route oral
# [26] = molecular target: Toll-like receptor 2 (Mus musculus) (UniProt Q9QUN7); assay: Inhibition of TLR2 in mouse RAW264.7 cells assessed as inhibition of Pam3CK-induced IL-6 level at 5 to 10 uM preincubated for 2 hrs followed by Pam3CK addition measured after 12 hrs by ELISA; assay type: cell-based
# Mus musculus [27] = assay: Antiinflammatory activity in acute lung injury C57BL/6 mouse model assessed as inhibition of LPS-induced macrophage infilteration by measuring reduction in CD68 expression in lung tissues at 20 mg/kg, po treated 15 mins before LPS challenge measured after 6 hrs by DAB staining based immunohistochemical analysis; assay type: functional, organism-based
# [28] = molecular target: Mitogen-activated protein kinase 11 (Homo sapiens) (UniProt Q15759); assay: Inhibition of full length recombinant human N-terminal GST-tagged p38-beta (1 to 364 residues) expressed in Escherichia coli using modified erktide as substrate at 0.05 to 50 uM after 1 hr by microfluidic assay
# Sequence of Mitogen-activated protein kinase 11 (Homo sapiens) (Q15759 whole entry, the tested form may be a part): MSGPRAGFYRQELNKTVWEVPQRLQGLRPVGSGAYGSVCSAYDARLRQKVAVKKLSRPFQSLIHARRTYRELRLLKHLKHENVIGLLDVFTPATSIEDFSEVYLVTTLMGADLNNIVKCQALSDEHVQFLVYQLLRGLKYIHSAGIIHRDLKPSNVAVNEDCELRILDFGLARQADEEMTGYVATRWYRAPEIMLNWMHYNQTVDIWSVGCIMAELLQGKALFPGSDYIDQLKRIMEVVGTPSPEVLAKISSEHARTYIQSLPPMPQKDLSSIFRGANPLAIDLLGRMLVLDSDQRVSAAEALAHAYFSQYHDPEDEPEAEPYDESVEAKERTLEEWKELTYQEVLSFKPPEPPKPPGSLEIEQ
compound,measurement,setting,value
COc1ccc(/C=C/C(=O)NCCNC(=O)/C=C/c2ccc(OC)cc2OC)c(OC)c1,Cmax,[1],0.04 µg/mL
same,survival at 10 mg/kg,Mus musculus [2],100%
same,inhibition,Mus musculus [3],Active
same,inhibition,Mus musculus [4],Active
same,inhibition,Mus musculus [5],Active
same,inhibition,Mus musculus [6],Active
same,inhibition,[7],inactive
same,Activity,[8],Non-toxic
same,inhibition,[9],inactive
same,Cmax,[10],0.55 µg/mL
same,inhibition,Mus musculus [11],Active
same,inhibition,Mus musculus [12],Active
same,inhibition,[13],inactive
same,inhibition,[14],inactive
same,inhibition,Mus musculus [15],Active
same,Cmax,[16],0.27 µg/mL
same,Activity,[17],inactive
same,inhibition,Mus musculus [18],Active
same,inhibition,Mus musculus [19],Active
same,inhibition,Mus musculus [20],Active
same,inhibition,Mus musculus [21],Active
same,inhibition,[22],inactive
same,inhibition,Mus musculus [23],Active
same,inhibition,Mus musculus [24],Active
same,Cmax,[25],0.04 µg/mL
same,inhibition,[26],inactive
same,inhibition,Mus musculus [27],Active
same,inhibition,[28],inactive
